Reference: patent publication US9487546B2, “Solid forms of tenofovir” (Gilead Sciences, Inc., priority 2014, dated 2016)

Legend:
Type in all cases: physicochemical
[1] = Thermogravimetric analysis (TGA) of Form I, dehydration; details: under nitrogen purge, 10° C./min
Protocol: Thermogravimetric analysis (TGA) data was obtained using 2.01 mg PMPA Form I and was heated at a rate of 10° C./min over the range of 25 to 350° C. The solids lost about 6.1% water below 100° C., and the loss is very close to the theoretical water content of 5.9% for PMPA monohydrate.

[2] = XRPD patterns during heating (70, 80, 90° C.), form transition; details: XRPD patterns at 70, 80, and 90° C. during the heating period
[3] = Storage of Form IV in a sealed vial, checked by XRPD; details: kept in a sealed vial at ambient temperature
Source text: Form IV was obtained by keeping Form VI in water at ambient temperature for 3 weeks.

dehydration temperature (TGA) [1]	transition from monohydrate (Form I) to an anhydrous form [2]	change of sample by XRPD analysis on storage [3]	Compound
about 50 °C	around 80 °C	–	C[C@H](Cn1cnc2c(N)ncnc21)OCP(=O)(O)O [Form I, (R)-9-[2-(phosphonomethoxy)propyl]adenine]
–	–	did not change	C[C@H](Cn1cnc2c(N)ncnc21)OCP(=O)(O)O [Form IV, (R)-9-[2-(phosphonomethoxy)propyl]adenine]
